From PMC2360547 (British Journal of Cancer, 2006)
“And” between values parts separate entries of the source, which are not always exact repeats. Equal values may be shown once. Read-outs that look alike come from different tables or passages of the source.

Experiments:
[1] = test system: PKC
Procedure: Tumour biopsies were immediately frozen in liquid nitrogen and stored at −70°C until analysis. Heparinised blood (10 ml) was collected predose and at day 28.
Tumours were powdered in liquid nitrogen and homogenised on ice using an Ultra-Turrax in a buffer containing 20 mM HEPES, pH 7.4, 2 mM EDTA, 25 mM β-glycerophosphate, 0.2 mM DTT, 10 μg ml^−1 leupeptin, 10 μg ml^−1 aprotinin, 1 μg ml^−1 pepstatin, 1 μM sodium orthovanadate and 0.5 mM PMSF. Extracts were then sonicated in an ice cold sonicating bath for 5 min before centrifugation at 1000 g for 5 min to remove cellular debris. Supernatants were centrifuged at 50 000 g for 15 min to separate cytosolic (supernatant) and particulate (pellet) fractions. The supernatant was kept as ‘cytosolic’ fraction. The pellet was further extracted by resuspension in the original lysis buffer including 1% NP-40. Following sonication for 5 min on ice, the extract was centrifuged at 50 000 g for 15 min. The supernatant from this spin (which derived from the original pellet) was kept as the ‘particulate’ fraction. All steps were performed at 4°C or on ice.
The protein concentrations of the cytosolic and particulate fractions were measured after TCA precipitation using the Dc protein assay kit (Bio-Rad).
Intratumoral total PKC activity was measured in cytosolic and particulate fractions using protamine sulphate as the substrate, following the method of a validated assay ([Budworth and Gescher, 1995]). The PKC assay was performed with 4–5 μl of the cytosol or particulate extract (2–50 μg protein) in a total reaction volume of 200 μl, including 200 μg ml^−1 protamine sulphate, 150 μM (γ-^32P)ATP (200 c.p.m. pmol^−1) in a buffer containing 20 mM Tris-HCl, pH 7.4, 10 mM magnesium acetate and 0.5 mM EGTA. The reaction was terminated after 6–7 min (30°C) by spotting 35 μl of the mix onto P81 phosphocellulose paper, followed by washing in 75 mM phosphoric acid. Bound, phosphorylated protamine sulphate was quantitated by scintillation counting of the phosphocellulose papers. Protein kinase C activity was determined by phosphate incorporation into protamine sulphate and expressed as picomolar of phosphate transferred min mg^−1 protein. Measurements were performed in triplicate. Each patient's pretreatment and day 28 biopsies were processed together and analysed in the same assay run. Up to six patients’ samples could be analysed in one day to minimise interassay variability.

[2] = test system: multidrug resistant cells (R100; CCRF CEM cells resistant to 100 ng ml−1 vinblastine); conditions: for Percent of potential maximum reversal of multidrug resistance: plasma from patients receiving midostaurin 75 mg t.i.d.
Procedure: This was determined using a previously reported method that assessed the capacity of cremophor EL to inhibit MDR^10. Briefly, the ability of the patient's plasma to modulate ex vivo intracellular daunorubicin accumulation in multidrug resistant cells (R100; CCRF CEM cells resistant to 100 ng ml^−1 vinblastine) was measured using fluorescence detection. The activity of 20 μg ml^−1 Valspodar (PSC833, an inhibitor of P-glycoprotein) added to the patient's prestudy plasma sample defined 100% reversal ([…] of daunorubicin). […] The modulating ability of day 29 plasma samples was determined relative to this. All assays were performed in triplicate. Blank plasma was spiked with 1.0 μl ml^−1 cremophor EL and run as an inter-assay control.

[3] = Plasma concentrations by HPLC with fluorescence detection; format: in vivo, human; conditions: for concentration at 28 day: human, plasma, oral
Procedure: (§1) Therefore, the tumour tissue was frozen and cut into as small as possible pieces with a scalpel. The pieces were weighed, added to 1 ml of water, vortexed and thereafter treated like plasma. The assay for plasma samples was validated with acceptable calibration curves, within-study variability and total recovery. […] Due to limited availability of tumour tissue, the within-study validation for tumour assay was not performed.

[4] = Tumour tissue concentrations by HPLC with fluorescence detection; format: in vivo, human; conditions: for Kp at 28 day / concentration at 28 day: human, oral, 10 subjects; for Kp at 28 day: tumour tissue / plasma, 75 mg three times a day, tumour tissue to plasma; for concentration at 28 day: 75 mg tid
Procedure: as §1

[5] = test system: PKCα; design: method as in Fabbro et al, 2000; conditions: ref Fabbro et al, 2000; cited from earlier work
[6] = design: method as in Novartis internal report; conditions: ref Novartis internal report; cited from earlier work
[7] = design: method as in Propper et al, 2001; conditions: Phase I trial, oral; ref Propper et al, 2001; cited from earlier work
[8] = test system: acute myeloid leukaemia (AML); design: method as in Stone et al, 2005; conditions: ref Stone et al, 2005, cited from earlier work
[9] = test system: patients with advanced cancer; conditions: ref Propper et al, 2001, cited from earlier work
[10] = one patient resistant to midostaurin with abundance of PKCξ
[11] = 20 μg ml−1 added to pretreatment plasma, 100% = 20 μg ml−1 Valspodar

## CO[C@@H]1[C@H](N(C)C(=O)c2ccccc2)C[C@H]2O[C@]1(C)n1c3ccccc3c3c4c(c5c6ccccc6n2c5c31)C(=O)NC4 [Midostaurin, N-benzoyl-staurosporine]
[1]; 10 μM added to melanoma biopsies from nontrial patients
  Effect on phosphorylation of protamine sulphate: inhibited phosphorylation
[1]; day 28 tumour biopsy, in seven out of nine patients
  Reduction of cytosolic PKC activity compared to pretreatment biopsy: 7–91%
[1]; [10]
  Change of cytosolic PKC activity: unchanged
  Increase in particulate PKC activity: 65%
[1]; patient 10, day 28 (day 0: 19.1%)
  Percentage of total PKC activity present in the particulate fraction: 15.4%
[1]; patient 11, day 28 (day 0: 15.7%)
  Percentage of total PKC activity present in the particulate fraction: 11.1%
[2]; [11]
  Percent of potential maximal reversal of multidrug resistance, mean: 40%
  Percent of potential maximal reversal of multidrug resistance, range: 14–64%
[2]; 10 out of 12 patients
  Percent of potential maximum reversal of multidrug resistance: < 10%
[2]; all 12 patients
  Percent of potential maximum reversal of multidrug resistance: < 20%
[3]; 75 mg three times a day, calculated for median plasma concentration of 2342 nM and 99% protein binding, read-out: Free plasma concentration
  concentration at 28 day: 23.4 nM
[3]; 75 mg tid, 12 subjects, about 1 month of 75 mg tid, read-out: Plasma concentrations, maximum
  concentration at 28 day: 4650 nM
[3]; 75 mg tid, 12 subjects, about 1 month of 75 mg tid, read-out: Plasma concentrations, mean
  concentration at 28 day: 2450 nM
[3]; 75 mg tid, 12 subjects, about 1 month of 75 mg tid, read-out: Plasma concentrations, median
  concentration at 28 day: 2340 nM
[3]; 75 mg tid, 12 subjects, about 1 month of 75 mg tid, read-out: Plasma concentrations, minimum
  concentration at 28 day: 771 nM
[3]; 75 mg tid, 12 subjects, about 1 month of 75 mg tid, read-out: Plasma trough concentrations, range
  concentration at 28 day: 771 to 4650 nM
[3]; individual subjects, sampling day 27-30, midostaurin 75 mg tid
  Plasma concentrations: 2614 nM and 1639 nM and 771 nM and 2901 nM and 2226 nM and 2387 nM and 4649 nM and 1765 nM and 1437 nM and 2297 nM and 3549 nM and 3212 nM
[4]; read-out: Tissue/plasma ratios, maximum
  Kp at 28 day: 1.86
[4]; read-out: Tissue/plasma ratios, mean
  Kp at 28 day: 0.56
[4]; read-out: Tissue/plasma ratios, median
  Kp at 28 day: 0.29
[4]; read-out: Tissue/plasma ratios, minimum
  Kp at 28 day: 0.02
[4]; tumour tissue, tumour tissue, about 1 month of 75 mg tid, read-out: Tissue concentrations, maximum
  concentration at 28 day: 4250 nM
[4]; tumour tissue, tumour tissue, about 1 month of 75 mg tid, read-out: Tissue concentrations, mean
  concentration at 28 day: 1300 nM
[4]; tumour tissue, tumour tissue, about 1 month of 75 mg tid, read-out: Tissue concentrations, median
  concentration at 28 day: 593 nM
[4]; tumour tissue, tumour tissue, about 1 month of 75 mg tid, read-out: Tissue concentrations, minimum
  concentration at 28 day: 58 nM
[4]; tumour tissue, individual subjects, about 1 month of 75 mg tid
  Tissue concentrations: 58 nM and 607 nM and 266 nM and 579 nM and 4142 nM and 550 nM and 1528 nM and 358 nM and 698 nM and 4246 nM
[5]
  IC50: 22 nM
[6]
  Plasma protein binding: 99%
[7]
  Elimination t1/2, range: 22 to 96 h
  Estimated median elimination t1/2: 38.4 h
[8]; 225 mg day−1 in AML
  Tolerability: well-tolerated
[8]
  AML patients with a 50% reduction in bone marrow blast cells: 25%
  AML patients with a 50% reduction of peripheral blood blast cells: 70%
[9]; for 4 months on midostaurin
  Response in two patients with cholangiocarcinoma: one had stable disease and one a partial response
[9]; oral, 12.5–300 mg day−1
  MTD: not reached
[9]; oral, 225–300 mg day−1 (grade 3 in 3)
  Patients with nausea/vomiting: 15 out of 16
[9]; oral, 225–300 mg day−1
  Patients with grade 2 diarrhoea: six out of 16
